Test results: patent US9902716B2, “Fluorinated benzofuranyl-pyrimidine derivatives containing a sulfone group” (Bayer Pharma Aktiengesellschaft, priority 2014, dated 2018)

Tests used:
CDK9/CycT1 = biological target: T1, CDK9/CycT1 (Homo sapiens, UniProt P50750); assay: CDK9/CycT1 kinase assay (Method 1a, TR-FRET); assay type: biochemical; settings: 10 μM ATP; for IC50: Method 1a; for Selectivity CDK9 over CDK2: IC50 (CDK2)/IC50 (CDK9): Methods 1a and 2a
T1 construct: Recombinant full-length His-tagged human CDK9 and CycT1; His; purchased Invitrogen PV4131; host or cells: insect cells
Source text: 1a. CDK9/CycT1 Kinase Assay:
CDK9/CycT1-inhibitory activity of compounds of the present invention was quantified employing the CDK9/CycT1 TR-FRET assay as described in the following paragraphs:
Recombinant full-length His-tagged human CDK9 and CycT1, expressed in insect cells and purified by Ni-NTA affinity chromatography, were purchased from Invitrogen (Cat. No PV4131). As substrate for the kinase reaction biotinylated peptide biotin-Ttds-YISPLKSPYKISEG (C-terminus in amid form) was used which can be purchased e.g. form the company JERINI Peptide Technologies (Berlin, Germany). For the assay 50 nl of a 100 fold concentrated solution of the test compound in DMSO was pipetted into a black low volume 384 well microtiter plate (Greiner Bio-One, Frickenhausen, Germany), 2 μl of a solution of CDK9/CycT1 in aqueous assay buffer [50 mM Tris/HCl pH 8.0, 10 mM MgCl2, 1.0 mM dithiothreitol, 0.1 mM sodium ortho-vanadate, 0.01% (v/v) Nonidet-P40 (Sigma)] were added and the mixture was incubated for 15 min at 22° C. to allow pre-binding of the test compounds to the enzyme before the start of the kinase reaction. Then the kinase reaction was started by the addition of 3 μl of a solution of adenosine-tri-phosphate (ATP, 16.7 μM=> final conc. in the 5 μl assay volume is 10 μM) and substrate (1.67 μM=> final conc. in the 5 μl assay volume is 1 μM) in assay buffer and the resulting mixture was incubated for a reaction time of 25 min at 22° C. The concentration of CDK9/CycT1 was adjusted depending of the activity of the enzyme lot and was chosen appropriate to have the assay in the linear range, typical concentrations were in the range of 1 μg/mL. The reaction was stopped by the addition of 5 μl of a solution of TR-FRET detection reagents (0.2 μM streptavidine-XL665 [Cisbio Bioassays, Codolet, France] and 1 nM anti-RB(pSer807/pSer811)-antibody from BD Pharmingen [#558389] and 1.2 nM LANCE EU-W1024 labeled anti-mouse IgG antibody [Perkin-Elmer, product no. AD0077]) in an aqueous EDTA-solution (100 mM EDTA, 0.2% (w/v) bovine serum albumin in 100 mM HEPES/NaOH pH 7.0).
(§1) The resulting mixture was incubated 1 h at 22° C. to allow the formation of complex between the phosphorylated biotinylated peptide and the detection reagents. Subsequently the amount of phosphorylated substrate was evaluated by measurement of the resonance energy transfer from the Euchelate to the streptavidine-XL. Therefore, the fluorescence emissions at 620 nm and 665 nm after excitation at 350 nm was measured in a HTRF reader, e.g. a Rubystar (BMG Labtechnologies, Offenburg, Germany) or a Viewlux (Perkin-Elmer). The ratio of the emissions at 665 nm and at 622 nm was taken as the measure for the amount of phosphorylated substrate. The data were normalised (enzyme reaction without inhibitor=0% inhibition, all other assay components but no enzyme=100% inhibition).

CDK2/CycE = biological target: T2, CDK2/CycE (Homo sapiens, UniProt P24941); assay: CDK2/CycE kinase assay (Method 2a, TR-FRET); assay type: biochemical; settings: 10 μM ATP
T2 construct: GST; purchased ProQinase GmbH (Freiburg, Germany); host or cells: insect cells (Sf9)
Source text: 2a. CDK2/CycE Kinase Assay:
CDK2/CycE-inhibitory activity of compounds of the present invention was quantified employing the CDK2/CycE TR-FRET assay as described in the following paragraphs:
Recombinant fusion proteins of GST and human CDK2 and of GST and human CycE, expressed in insect cells (Sf9) and purified by Glutathion-Sepharose affinity chromatography, were purchased from ProQinase GmbH (Freiburg, Germany). As substrate for the kinase reaction biotinylated peptide biotin-Ttds-YISPLKSPYKISEG (C-terminus in amid form) was used which can be purchased e.g. form the company JERINI Peptide Technologies (Berlin, Germany).
For the assay 50 nl of a 100 fold concentrated solution of the test compound in DMSO was pipetted into a black low volume 384 well microtiter plate (Greiner Bio-One, Frickenhausen, Germany), 2 μl of a solution of CDK2/CycE in aqueous assay buffer [50 mM Tris/HCl pH 8.0, 10 mM MgCl2, 1.0 mM dithiothreitol, 0.1 mM sodium ortho-vanadate, 0.01% (v/v) Nonidet-P40 (Sigma)] were added and the mixture was incubated for 15 min at 22° C. to allow pre-binding of the test compounds to the enzyme before the start of the kinase reaction. Then the kinase reaction was started by the addition of 3 μl of a solution of adenosine-tri-phosphate (ATP, 16.7 μM=> final conc. in the 5 μl assay volume is 10 μM) and substrate (1.25 μM=> final conc. in the 5 μl assay volume is 0.75 μM) in assay buffer and the resulting mixture was incubated for a reaction time of 25 min at 22° C. […]
as §1, with “TR-FRET” for “HTRF”, “The ratio of the emissions at 665 nm and at 622 nm was taken as the measure for the amount of phosphorylated substrate. The data were normalised (enzyme reaction without inhibitor=0% inhibition, all other assay components but no enzyme=100% inhibition).” left out

T1 sequence (P50750 whole entry): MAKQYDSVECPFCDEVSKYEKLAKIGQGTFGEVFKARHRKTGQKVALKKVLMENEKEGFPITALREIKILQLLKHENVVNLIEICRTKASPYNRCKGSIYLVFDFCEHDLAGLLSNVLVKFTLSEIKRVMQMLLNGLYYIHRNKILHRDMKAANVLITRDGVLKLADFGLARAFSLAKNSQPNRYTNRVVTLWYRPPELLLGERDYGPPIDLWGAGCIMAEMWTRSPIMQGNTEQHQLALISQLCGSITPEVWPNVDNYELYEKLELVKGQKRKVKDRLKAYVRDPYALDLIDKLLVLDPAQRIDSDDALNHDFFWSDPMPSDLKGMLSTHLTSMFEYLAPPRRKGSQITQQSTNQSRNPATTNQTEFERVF
T1 sequence (O60563 whole entry partner): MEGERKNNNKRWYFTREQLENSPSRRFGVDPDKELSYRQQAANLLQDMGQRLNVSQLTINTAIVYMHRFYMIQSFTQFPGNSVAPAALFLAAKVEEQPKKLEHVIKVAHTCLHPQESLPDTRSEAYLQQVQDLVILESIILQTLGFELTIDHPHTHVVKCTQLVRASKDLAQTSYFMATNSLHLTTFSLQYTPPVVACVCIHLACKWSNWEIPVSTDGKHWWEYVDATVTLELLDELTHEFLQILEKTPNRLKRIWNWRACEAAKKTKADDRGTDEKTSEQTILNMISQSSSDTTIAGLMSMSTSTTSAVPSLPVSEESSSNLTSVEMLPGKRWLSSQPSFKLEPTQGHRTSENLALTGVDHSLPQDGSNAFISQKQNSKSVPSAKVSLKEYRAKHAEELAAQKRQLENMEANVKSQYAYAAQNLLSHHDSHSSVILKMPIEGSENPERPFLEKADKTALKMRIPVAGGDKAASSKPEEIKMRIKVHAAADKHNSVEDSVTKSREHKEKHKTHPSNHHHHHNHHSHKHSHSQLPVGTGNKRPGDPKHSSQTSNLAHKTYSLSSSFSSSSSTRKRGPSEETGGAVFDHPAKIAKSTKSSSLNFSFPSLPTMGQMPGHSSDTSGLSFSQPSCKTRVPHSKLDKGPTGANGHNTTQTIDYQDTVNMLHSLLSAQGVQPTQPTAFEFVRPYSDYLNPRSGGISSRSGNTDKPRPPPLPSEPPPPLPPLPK

IC50 (CDK9/CycT1) [nM] | Selectivity CDK9 over CDK2: IC50 (CDK2)/IC50 (CDK9) (CDK9/CycT1) | IC50 (CDK2/CycE) [nM] | Compound
4 | 44 | 175 | CS(=O)(=O)Cc1cccc(Nc2ncc(F)c(-c3ccc(F)c4ccoc34)n2)c1 [Example 1, 5-Fluoro-4-(4-fluoro-1-benzofuran-7-yl)-N-{3-[(methylsulfonyl)methyl]-phenyl}pyrimidin-2-amine]
3 | 37 | 112 | CCS(=O)(=O)Cc1cccc(Nc2ncc(F)c(-c3ccc(F)c4ccoc34)n2)c1 [Example 2, N-{3-[(Ethylsulfonyl)methyl]phenyl}-5-fluoro-4-(4-fluoro-1-benzofuran-7-yl)pyrimidin-2-amine]
2 | – | – | CS(=O)(=O)Cc1cc(F)cc(Nc2ncc(F)c(-c3ccc(F)c4ccoc34)n2)c1 [Example 3]
2 | 29 | 57 | Cc1cc(CS(C)(=O)=O)cc(Nc2ncc(F)c(-c3ccc(F)c4ccoc34)n2)c1 [Example 4, 5-Fluoro-4-(4-fluoro-1-benzofuran-7-yl)-N-{3-methyl-5-[(methylsulfonyl)methyl]-phenyl}pyrimidin-2-amine]
